Source: patent US8461362B2, “Protein phosphatase 2A-activating agents” (The Ohio State University Research Foundation, priority 2009, dated 2013)
Where two headings read alike, the source gives them in different places.

Assays:
Format in all cases: cell-based
[1] = test system: AR and its target gene product PSA in LNCaP cells; experiment: Western blot of AR and PSA expression in LNCaP cells; settings: LNCaP cells, 72 h of incubation, 2.5% FBS, Western blot, read-out: concentration reducing expression of AR and PSA by 50%
Method: Cells cultured in T25 flasks were collected by scraping, and cell pellets were washed once with PBS. Cells were lysed in a lysis buffer consisting of 1% SDS, 10 mM EDTA and 50 mM Tris-HCl, pH 8.1, in the presence of a commercial protease inhibitor cocktail from Aldrich-Sigma (2 mM AEBSF, 1 mM EDTA, 130 μM bestatin, 14 μM E-64, 1 μM leupeptin, and 0.3 μM aprotinin). Following a 10-sec sonication using 20% output in a Virsonic 300 sonicator (Virtis, Gardiner N.Y.) to disrupt cellular organelles and genomic DNA, cell lysates were centrifuged at 15,200×g for 15 minutes. One μL of the suspension was used for protein determination using a colorimetric BCA assay (Pierce, Rockford, Ill.), and to the remaining solution was added an equivalent volume of 2×SDS-polyacrylamide gel electrophoresis sample loading buffer (62.5 mM Tris-HCl, pH 6.8, 4% SDS, 5% β-mercaptoethanol, 20% glycerol, and 0.1% bromophenol blue), and boiled for 5 min. Equal amounts of proteins were resolved in 8% SDS-polyacrylamide gels, and transferred to nitrocellulose membranes using a semidry transfer cell. The transblotted membrane was washed twice with Tris-buffered saline containing 0.1% Tween 20 (TBST). After blocking with TBST containing 5% nonfat milk for 40 min, the membrane was incubated with the appropriate primary antibody in TBST-1% nonfat milk at 4° C. overnight. All primary antibodies were diluted 1:1000 in 1% nonfat milk-containing TBST. After treatment with the primary antibody, the membrane was washed three times with TBST for a total of 15 min, followed by incubation with goat anti-rabbit or anti-mouse Immunoglobulin G (IgG)-horseradish peroxidase conjugates (diluted 1:2000) for 1 h at room temperature and four washes with TBST for a total of 1 h. The immunoblots were visualized by enhanced chemiluminescence.

[2] = test system: AR promoter; experiment: AR promoter-luciferase reporter assay (hAR-Luc) in LNCaP cells; settings: hAR-Luc transfected LNCaP cells, 72 h of exposure
Method: Transfection and Luciferase Assay.
Cells were transfected with 5 μg of the AR-linked luciferase reporter (hAR-Luc) plasmid in an Amaxa Nucleofector using a cell line-specific nucleofector kit according to the manufacturer's protocol (Amaxa Inc. Gaithersburg, Md.) and then seeded in T25 flasks at 3×10^5 cells per flask for 48 h. The transfection efficiency was determined by transfecting cells with 3 μg of pmaxGFP plasmid followed by fluorescence microscopy to detect green fluorescent protein expression. For each transfection, herpes simplex virus (HSV) thymidine kinase promoter-driven Renilla reniformis luciferase was used as an internal control for normalization. For the luciferase reporter gene assay, after transfection, cells were cultured in 24-well plates in 10% FBS-supplemented RPMI 1640 for 48 h, subjected to different treatments in 2.5% FBS-supplemented medium for the indicated times, collected, and lysed with passive lysis buffer (Promega). Aliquots of lysates (50 μL) were mixed with 75 μL of luciferase substrate (Promega) in 96-well plates, and luciferase activities were monitored in a MicroLumaPlus LB96V luminometer (Berthold Technologies, Oak Ridge, Tenn.) with the WinGlow software package. All transfection experiments were carried out in six replicates.

[3] = test system: Sp1 binding to AR promoter; experiment: ChIP assay of Sp1 binding to AR promoter in LNCaP cells; settings: 72 h
Method: Chromatin Immunoprecipitation (ChIP).
After drug treatment, LNCaP cells (2×10^7) in 50 mL of PBS were cross-linked with 1.35 mL of 37% formaldehyde (final concentration 1%) for 15 min at room temperature. Glycine solution (1 mol/L) was added to a final concentration of 125 mmol/L to stop the cross-linking reaction. Cells were harvested and washed twice with 5 mL of PBS, and the cell pellets were lysed in a ChIP lysis buffer containing (50 mM HEPES-KOH at pH 7.5, 140 mM NaCl, 1% Triton X-100, 0.1% sodium deoxycholate, 2 mM AEBSF, 1 mM EDTA, 130 μM bestatin, […], 1 μM leupeptin, and 0.3 μM aprotinin). The suspension was sonicated at 20% output in a Virsonic 300 sonicator with 6 sets of 10-sec pulses (resulting in an average fragment size of 0.8-0.2 kb) and centrifuged for 10 min at 15,000×g at 4° C. One-μL aliquots of the transparent supernatants were taken for determining protein concentrations by BCA assays. Immunoprecipitation was carried out as described above. Aliquots of 1 mg proteins were used for immunoprecipitation using 4 μg of anti-Sp1 antibody followed by protein A/G agarose beads. […]

[4] = test system: Sp1 mRNA and Sp1 target genes VEGF, Mdm2, DNMT1; experiment: mRNA expression of Sp1 and Sp1 downstream target genes in LNCaP cells; settings: for Sp1 mRNA expression: high doses
Method: RNA Isolation and Reverse Transcription (RT)-PCR.
LNCaP cells were subject to total RNA isolation by using a Trizol reagent (Invitrogen Corporation, CA). RNA concentrations were determined by measuring absorption at 260 nm in a spectrophotometer. Aliquots of 2 μg of total RNA from each sample were reverse transcribed to cDNAs using the iScript cDNA Synthesis Kit (Bio-Rad) according to the manufacturer's instructions. PCR products were resolved electrophoretically in 1.2% agarose gels and visualized by ethidium bromide staining.

Cc1c(C)c2c(c(C)c1OC(=O)CCC(=O)O)CC[C@@](C)(CCC[C@H](C)CCC[C@H](C)CCCC(C)C)O2 [VES, α-tocopheryl succinate]
IC50 [1]: ≥ 10 µM
AR gene transcription (luciferase reporter activity) [2]: dose-dependent inhibitory effect
Sp1 binding to AR promoter [3]: diminished the Sp1 binding to AR promoter in a dose-dependent manner
transcription of Sp1 downstream target genes (VEGF, Mdm2, DNMT1) [4]: dose-dependent transcriptional repression
Sp1 mRNA expression [4]: remained unaltered

Cc1c(C)c2c(c(C)c1OC(=O)CCC(=O)O)CCC(C)(CCCC(C)CCCC(C)C)O2 (stereo not shown) [TS-1, succinic acid mono-[2-(4,8-dimethyl-nonyl)-2,5,7,8-tetramethylchroman-6-yl]ester]
IC50 ([1]; Homo sapiens): 5 µM
AR gene transcription (luciferase reporter activity) [2]: dose-dependent inhibitory effect
Sp1 binding to AR promoter [3]: diminished the Sp1 binding to AR promoter in a dose-dependent manner
transcription of Sp1 downstream target genes (VEGF, Mdm2, DNMT1) [4]: dose-dependent transcriptional repression
Sp1 mRNA expression [4]: remained unaltered
